EC50 data for 19 molecules are collected here from US11236055B2 (Venenum Biodesign, LLC, priority 2016, dated 2022).

One assay has as its target T1, human TGR5 receptor (Homo sapiens, UniProt Q8TDU6).
T1 construct: host or cells: CHO-K1 (hTGR5-CHO cells)
T1 sequence (Q8TDU6 1-330): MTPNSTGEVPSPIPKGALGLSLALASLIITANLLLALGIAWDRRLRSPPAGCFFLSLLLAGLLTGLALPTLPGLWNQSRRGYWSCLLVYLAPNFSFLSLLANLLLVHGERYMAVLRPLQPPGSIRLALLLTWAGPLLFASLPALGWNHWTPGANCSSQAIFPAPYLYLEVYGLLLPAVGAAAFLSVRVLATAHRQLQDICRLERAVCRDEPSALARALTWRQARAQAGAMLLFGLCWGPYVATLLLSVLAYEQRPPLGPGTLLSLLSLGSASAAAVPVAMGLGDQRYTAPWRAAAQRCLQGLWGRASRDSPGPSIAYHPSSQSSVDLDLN
Kind of assay: Human TGR5 cAMP production assay. The assay is classed as cell-based. The conditions noted are these: human TGR5, luminescent cAMP assay; coded A-D; read-out: Human TGR5 Lum. cAMP Activity (EC50). As for the experimental part: Human TGR5 cAMP Production Assay
We evaluated the Compounds of the present invention for their ability to induce cAMP production using CHO-K1 cells overexpressing the human TGR5 receptor. CHO-K1 cells stably expressing human TGR5 receptor (accession number NM_001077194.1 (hTGR5) (i.e., hTGR5-CHO cells) were purchased from DiscoveRx Corporation (Fremont, Calif.). hTGR5-CHO cells were grown in Ham's F-12 media supplemented with 10% Fetal Bovine Serum, 1% Penicillin-Streptomycin, 2 mM L-Alanine L-Glutamine (Glutamax), and 800 μg/mL Geneticin selection. The cAMP production assay was performed using DiscoveRx's cAMP XS+ kit (Catalog No. 90-0075XL) following the manufacturer's recommended protocol. Briefly, hTGR5-CHO cells were harvested using non-enzymatic cell dissociation buffer (Sigma-Aldrich, St. Louis, Mo.) and 1×10^6 cells were combined in Phosphate-Buffered Saline (PBS) to a final volume of 496 μL to which 4 μL of 125 mM IBMX (Sigma-Aldrich, St. Louis, Mo.) was added. 500 μL of cAMP antibody solution was added to the harvested cells and incubated at room temperature for 20 min.
Test compounds were serially diluted (half-log dilutions) in DMSO and then further diluted 1:50 in PBS, 10 mM HEPES buffer. 2 μL of serially diluted compound was added to a 384-well low volume plate (Greiner; cat #784075) and centrifuged briefly. 2 μL of the cell/cAMP antibody mixture was then added to each compound-containing well and allowed to incubate at room temperature for one hour. Following incubation, the XS+ kits' ED/Lysis/CL Substrate Working Solution was prepared following the manufacturer's recommended protocol and 4 μL was added to each well of the plate. The plate was then incubated for one hour at room temperature. Following incubation, 4 μL of Enzyme Acceptor reagent was added to the plate and allowed to incubate overnight at room temperature. Luminescent signal was then detected using the Viewlux instrument (Perkin-Elmer, Waltham, Mass.).
(§1) In Table 33, EC50 values for both human and mouse cells were determined according to the TGR5 cAMP assays described above.

The next assay concerns the target T2, mouse TGR5 receptor (Mus musculus, UniProt Q80SS6).
T2 construct: expressed in transfected cells; host or cells: HEK293-EBNA (293 c18, ATCC CRL10852), Hygromycin B selection
T2 sequence (Q80SS6 1-329): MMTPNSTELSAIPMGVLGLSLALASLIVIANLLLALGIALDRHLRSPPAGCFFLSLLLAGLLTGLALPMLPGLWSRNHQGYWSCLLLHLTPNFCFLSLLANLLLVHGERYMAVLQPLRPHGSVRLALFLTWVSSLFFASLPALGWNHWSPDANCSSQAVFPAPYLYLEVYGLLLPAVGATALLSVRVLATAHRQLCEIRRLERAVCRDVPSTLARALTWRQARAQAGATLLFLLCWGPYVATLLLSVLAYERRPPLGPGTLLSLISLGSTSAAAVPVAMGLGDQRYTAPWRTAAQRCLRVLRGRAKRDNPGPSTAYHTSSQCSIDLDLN
In words: Mouse TGR5 cAMP production assay (HTRF, Cisbio cAMP HiRange). It is filed as cell-based. The conditions noted are these: HEK293-EBNA cells overexpressing mouse TGR5, HTRF cAMP HiRange; coded A-D.
Description: Mouse TGR5 cAMP Production Assay
We evaluated compounds of the present invention for their ability to induce cAMP production in HEK-EBNA cells overexpressing the mouse TGR5 receptor. Human embryonic kidney cells (HEK293-EBNA) stably expressing mouse TGR5 receptor were established using the following procedure. Specifically, a commercially-obtained gene encoding mouse TGR5 (accession number BC116914) from Thermo Scientific (Waltham, Mass.) was cloned into an episomal expression vector. The resulting expression plasmid was then transfected into 293 c18 (ATCC® CRL10852™) cells, which express the Epstein-Barr virus nuclear antigen EBNA1 and can support the replication of episomal vectors. Selection for the plasmid was maintained with Hygromycin B. Cells were cultured and maintained in DMEM (Sigma; cat #6429) supplemented with 10% Fetal Bovine Serum, 1% penicillin/streptomycin, 2 mM L-alanine L-glutamine (GlutaMax), and 250 μg/mL Hygromycin.
2. HTRF cAMP Production Assay
In this second cAMP production assay, the cAMP production was measured in 384-well low volume plates (Greiner; cat #784075) using the Cisbio™ cAMP HiRange HTRF Assay Kit (Cisbio) according to the manufacturer's protocol.
Briefly, compounds were initially diluted in 100% DMSO (12-point serial dilution by half logs) in a 96-well plate and then were further diluted 1:50 in PBS containing 10 mM HEPES. 5 μL were transferred to the 384-well assay plate in duplicate. HEK293-EBNA cells stably overexpressing mouse TGR5 were harvested using non-enzymatic cell dissociation buffer (Sigma), spun down, then resuspended in serum-free DMEM with 500 μM IBMX at a density of 500,000 cells/mL. 5 μL of cell suspension was transferred to each well of the 384-well assay plate already containing compound. The plate was covered and incubated at room temperature for 1 hour. The d2-cAMP and anti-cAMP Ab-cryptate stock solutions were prepared as per kit instructions. Then 5 μL of each conjugate (d2 and cryptate) were added to each well of the assay plate. The plate was covered and incubated at room temperature for 1 hour. The plate was read on an Envision™ plate reader (Perkin Elmer).
as §1
For orientation: Cyclic AMP is a second messenger, typically raised through Gs and lowered through Gi signalling.

In the case of `COc1cnccc1-c1cccc(C(C)(C)NS(=O)(=O)c2ccc(C(F)(F)F)cc2[N+](=O)[O-])c1` [Compound 2BJ], the EC50 on human TGR5 receptor is less than 100 nM; at mouse TGR5 receptor, 1000 to 30000 nM.
On to `Cc1cnccc1-c1cccc([C@H](C)N(CCCCNc2c(NCCS(=O)(=O)O)c(=O)c2=O)S(=O)(=O)c2ccccc2C(F)(F)F)c1`, for which the 50% effective concentration (EC50) at human TGR5 receptor is less than 100 nM; on mouse TGR5 receptor, 100 to 999 nM.
For `CC(C)(NS(=O)(=O)c1ccccc1C(F)(F)F)c1cccc(-c2ccc3nccn3c2)c1` [Compound 5AJ, N-(2-(3-(imidazo[1,2-a]pyridin-6-yl)phenyl)propan-2-yl)-2-(trifluoromethyl)benzenesulfonamide] the same measures were 100 to 999 nM and 1000 to 30000 nM.
For `Cc1cnccc1-c1cccc([C@H](C)N(CCCCC(=O)NCCOCCNC(=O)NCCS(=O)(=O)O)S(=O)(=O)c2cccc(Cl)c2C)c1` [Compound 28AF, (S)-17-((3-chloro-2-methylphenyl)sulfonyl)-18-(3-(3-methylpyridin-4-yl)phenyl)-4,12-dioxo-8-oxa-3,5,11,17-tetraazanonadecane-1-sulfonic acid], the values for the EC50 at human TGR5 receptor and at mouse TGR5 receptor were less than 100 nM and 100 to 999 nM, respectively.
`Cc1c(Cl)cccc1S(=O)(=O)N(CCCC(=O)NCCS(=O)(=O)O)[C@@H](C)c1cccc(-c2ccncc2CO)c1` [Compound 20AP, (S)-2-(4-(3-chloro-N-(1-(3-(3-(hydroxymethyl)pyridin-4-yl)phenyl)ethyl)-2-methylphenylsulfonamido)butanamido)ethanesulfonic acid]: the EC50 on human TGR5 receptor and on mouse TGR5 receptor was 100 to 999 nM throughout.
For the molecule `Cc1cnccc1-c1cccc([C@H](C)N(CCCC(=O)NCCS(=O)(=O)NCCC(=O)O)S(=O)(=O)c2ccccc2C(F)(F)F)c1` [Compound 20BI], the 50% effective concentration (EC50) on human TGR5 receptor and at mouse TGR5 receptor was less than 100 nM throughout.
In the case of `CC[C@H](NS(=O)(=O)c1cccc(C(F)(F)F)c1)c1cccc(-c2ccncc2C)c1` [Compound 5AY, (S)-N-(1-(3-(3-methylpyridin-4-yl)phenyl)propyl)-3-(trifluoromethyl)benzenesulfonamide], the 50% effective concentration (EC50) is less than 100 nM at human TGR5 receptor and 100 to 999 nM on mouse TGR5 receptor.
Taken in the same sequence, the figures for `Cc1cnccc1-c1cccc([C@H](C)N(CCCCC(=O)NC[C@@H](O)[C@H](O)[C@@H](O)[C@@H](O)CO)S(=O)(=O)c2cccc(Cl)c2C)c1` [Compound 20AI, 5-(3-chloro-2-methyl-N-((S)-1-(3-(3-methylpyridin-4-yl)phenyl)ethyl)phenylsulfonamido)-N-((2R,3S,4S,5S)-2,3,4,5,6-pentahydroxyhexyl)pentanamide] were less than 100 nM and 100 to 999 nM.
As to `Cc1cnsc1-c1cccc([C@H](C)N(CCCC(=O)O)S(=O)(=O)c2cccc(Cl)c2C)c1` [Compound 16AJ, (S)-4-(3-chloro-2-methyl-N-(1-(3-(4-methylisothiazol-5-yl)phenyl)ethyl)phenyl-sulfonamido)butanoic acid], the half-maximal effective concentration (EC50) at human TGR5 receptor and on mouse TGR5 receptor was 1000 to 30000 nM in each case.
With `CC(=O)Nc1cc(-c2cccc(C(C)(C)NS(=O)(=O)c3cccc(C(F)(F)F)c3)c2)ccn1` [Compound 9, N-(4-(3-(2-(3-(trifluoromethyl)phenylsulfonamido)propan-2-yl)phenyl)pyridin-2-yl)acetamide], the concentration for a half-maximal effect (EC50) at human TGR5 receptor and on mouse TGR5 receptor was 1000 to 30000 nM in each case.
As for `COc1cnccc1-c1cccc(C2CCCN2S(=O)(=O)c2cccc(C(F)(F)F)c2)c1` (centres unmarked) [Compound 40, 3-methoxy-4-(3-(1-((3-(trifluoromethyl)phenyl)sulfonyl)pyrrolidin-2-yl)phenyl)pyridine], the results for the EC50 on human TGR5 receptor and at mouse TGR5 receptor were 100 to 999 nM and 1000 to 30000 nM, respectively.
For `Cc1cnccc1-c1cccc(C(C)(C)N(CCCNS(=O)(=O)CCN)S(=O)(=O)c2cccc(Cl)c2C)c1` [Compound 26, N-(3-((2-aminoethyl)sulfonamido)propyl)-3-chloro-2-methyl-N-(2-(3-(3-methylpyridin-4-yl)phenyl)propan-2-yl)benzenesulfonamide] the same measures were less than 100 nM and 100 to 999 nM.
Taken in the same sequence, the figures for `COC(=O)C(NS(=O)(=O)c1cccc(C(F)(F)F)c1)c1cccc(-c2ccncc2OC)c1` (centres unmarked) [Compound 1CE] were 1000 to 30000 nM and 1000 to 30000 nM.
Taken in the same sequence, the figures for `Cc1cnccc1-c1cccc(C(CCCCN)NS(=O)(=O)c2ccccc2C(F)(F)F)c1` (centres unmarked) [Compound 24AA, N-(5-amino-1-(3-(3-methylpyridin-4-yl)phenyl)pentyl)-2-(trifluoromethyl)benzenesulfonamide] were 1000 to 30000 nM and 100 to 999 nM.
With `Cc1cnccc1-c1cccc(C(CCCCNC(=O)NCCS(=O)(=O)O)NS(=O)(=O)c2ccccc2C(F)(F)F)c1` (centres unmarked) [Compound 28AG, 2-(3-(5-(3-(3-methylpyridin-4-yl)phenyl)-5-(2-(trifluoromethyl)phenylsulfonamido)pentyl)ureido)ethanesulfonic acid], the EC50 at human TGR5 receptor and at mouse TGR5 receptor was 100 to 999 nM in each case.
In the case of `CCc1cnccc1-c1cccc([C@H](C)N(CCCCN)S(=O)(=O)c2cccc(Cl)c2C)c1` [Compound 24AC, (S)-N-(4-aminobutyl)-3-chloro-N-(1-(3-(3-ethylpyridin-4-yl)phenyl)ethyl)-2-methylbenzenesulfonamide], the EC50 on human TGR5 receptor is 100 to 999 nM; at mouse TGR5 receptor it was less than 100 nM.
For `Cc1cnccc1-c1cccc(C2CN(C(=O)CCC(=O)O)CCN2S(=O)(=O)c2ccc(F)cc2C(F)(F)F)c1` (centres unmarked) [Compound 46AL] the same measures were 100 to 999 nM and 100 to 999 nM.
For `Cc1cnccc1-c1cccc(C(C)(C)N(CCCNC(=O)NCCCS(=O)(=O)O)S(=O)(=O)c2cccc(Cl)c2C)c1` [Compound 29AC] the same measures were less than 100 nM and less than 100 nM.
Turning to `Cc1cnccc1-c1cccc([C@H](CC(=O)N(C)C)NS(=O)(=O)c2ccccc2C(F)(F)F)c1` [Compound 5BB, (S)-N,N-dimethyl-3-(3-(3-methylpyridin-4-yl)phenyl)-3-(2-(trifluoromethyl)phenylsulfonamido)propanamide], the 50% effective concentration (EC50) at human TGR5 receptor and at mouse TGR5 receptor was 100 to 999 nM in each case.

For orientation: EC50 means the concentration at which the effect is half-maximal.
